Results: patent US20090239748A1, “Fungicidal Mixtures Based on 2,5-Disubstituted N-Biphenylpyrazolcarboxamides” (BASF Aktiengesellschaft, priority 2005, published 2009)
Each block holds one compound with its values, some of them ahead of it.

Tests used:
Puccinia recondita = assay: Protective activity against Puccinia recondita on wheat (brown rust of wheat); assay type: in vivo
Experimental: (§1) The active compounds, separately or jointly, were prepared as a stock solution comprising 25 mg of active compound which was made up to 10 ml using a mixture of acetone and/or dimethyl sulfoxide and the emulsifier Uniperol® EL (wetting agent having an emulsifying and dispersing action based on ethoxylated alkylphenols) in a ratio by volume of solvent/emulsifier of 99:1. The mixture was then made up to 100 ml with water. This stock solution was diluted with the solvent/emulsifier/water mixture described to give the concentration of active compound stated below.
(§2) Alternatively, the active compounds epoxiconazole and pyraclostrobin were used as a commercial formulation and diluted with water to the stated active compound concentrations.
(§3) The visually determined percentages of infected leaf areas were converted into efficacies in % of the untreated control.
(§4) The efficacy (E) is calculated as follows using Abbot's formula: […]
α corresponds to the fungicidal infection of the treated plants in % and β corresponds to the fungicidal infection of the untreated (control) plants in %
An efficacy of 0 means that the infection level of the treated plants corresponds to that of the untreated control plants; an efficacy of 100 means that the treated plants were not infected.
(§5) The expected efficacies of active compound mixtures were determined using Colby's formula [R. S. Colby, “Calculating synergistic and antagonistic responses of herbicide combinations”, Weeds 15, 20-22 (1967)] and compared with the observed efficacies.
(§6) E=x+y−x·y/100 • E expected efficacy, expressed in % of the untreated control, when using the mixture of the active compounds A and B at the concentrations a and b; • x efficacy, expressed in % of the untreated control, when using the active compound A at the concentration a; • y efficacy, expressed in % of the untreated control, when using the active compound B at the concentration b.
Leaves of potted wheat seedlings of the cultivar “Kanzler” were sprayed to runoff point with an aqueous suspension having the active compound concentration stated below. The next day, the treated plants were inoculated with a spore suspension of brown rust of wheat (Puccinia recondita). The plants were then placed in a chamber with high atmospheric humidity (90 to 95%) at 20 to 22° C. for 24 hours. During this time, the spores germinated and the germ tubes penetrated into the leaf tissue. The next day, the test plants were returned to the greenhouse and cultivated at temperatures between 20 and 22° C. and at 65 to 70% relative atmospheric humidity for a further 7 days. The extent of the rust fungus development on the leaves was then determined visually.

Botrytis cinerea = assay: Activity against gray mold on bell pepper leaves caused by Botrytis cinerea, 1 day protective application; assay type: in vivo; details: sprayed 1 day before inoculation, read after 5 days
Experimental: as §1, §3, §4
(§7) The expected efficacies of active compound mixtures were determined using Colby's formula [R. S. Colby, “Calculating synergistic and antagonistic responses of herbicide combinations”, Weeds 15, 20-22 (1967)] and compared with the observed efficacies. […]
Bell pepper seedlings of the cultivar “Neusiedler Ideal Elite” were, after 2-3 leaves were well developed, sprayed to runoff point with an aqueous suspension having the active compound concentration stated below. […] After 5 days, the extent of the fungal infection on the leaves could be determined visually in %.

Phakopsora pachyrhizi = assay: Curative activity against soybean rust caused by Phakopsora pachyrhizi; assay type: in vivo; details: 0.25 mg/l, curative (sprayed 2 days after inoculation), 14 days
Experimental: as §1, §2, §3, §4, §7
Leaves of potted soybean seedlings of the cultivar “Oxford” were inoculated with a spore suspension of soybean rust (Phakopsora pachyrhizi). […] The extent of the rust fungus development on the leaves was then determined.

Septoria tritici = assay: Activity against the Septoria leaf spot pathogen Septoria tritici in the microtiter test; assay type: cell-based; details: microtiter plate, 405 nm, day 7
Experimental: as §5, §6
For this test, the active compounds were formulated separately as a stock solution having a concentration of 10 000 ppm in dimethyl sulfoxide.
The stock solution was mixed according to the ratio, pipetted into a microtiter plate (MTP) and diluted with an aqueous malt-based fungus nutrient medium to the stated active compound concentration. An aqueous spore suspension of Septoria tritici was then added. […] Using an absorbtion photometer, the MTPs were measured at 405 nm on day 7 after the inoculation.
The measured parameters were compared to the growth of the active compound-free control variant (100%) and the fungus- and active compound-free blank value to determine the relative growth in % of the pathogens in the individual active compounds.

[1] = test system: Pyrenophora [syn. Drechslera] teres; assay: Activity against net blotch of barley caused by Pyrenophora teres, 1 day protective application; assay type: in vivo; details: 0.25 mg/l, read after 6 days
Experimental: as §1, with “below. […]” for “below.”
as §3, §4, §7
Leaves of potted barley seedlings were sprayed to runoff point with an aqueous suspension having the active compound concentration stated below. […] After 6 days, the extent of the development of the disease was determined visually in % infection of the entire leaf area.

Structure (SMILES): Fc1ccc([C@]2(Cn3cncn3)O[C@H]2c2ccccc2Cl)cc1 (racemic) [epoxiconazole, (2RS,3SR)-1-[3-(2-chlorophenyl)-2,3-epoxy-2-(4-fluorophenyl)propyl]-1H-1,2,4-triazole, reference compound]
- Observed effect (% infection) (Puccinia recondita; 0.25 mg/l): 5%

Structure (SMILES): CC1CCN(c2c(-c3c(F)cc(F)cc3F)c(Cl)nc3ncnn23)CC1 [5-chloro-7-(4-methylpiperidin-1-yl)-6-(2,4,6-trifluorophenyl)-[1,2,4]triazolo[1,5-a]-pyrimidine, reference compound]
- Observed effect (% infection) (Botrytis cinerea; 4 mg/l): 40%

Structure (SMILES): Cn1cc(C(=O)Nc2ccccc2-c2cc(F)ccc2F)c(C(F)(F)F)n1 [No. I.1, N-(ortho-(2,5-difluorophenyl)phenyl)-1-methyl-3-trifluoromethylpyrazole-4-carboxamide]
- Observed effect (% infection) (Botrytis cinerea; 1 mg/l): 0%
- Observed effect (% infection) (Puccinia recondita; 1 mg/l): 5%
- Observed effect (% infection) (Phakopsora pachyrhizi): 29%
- Observed effect (% infection) (Septoria tritici; 1 mg/l): 0%

- melting point: 139 to 141 °C
Structure (SMILES): Cn1cc(C(=O)Nc2ccccc2-c2cc(F)ccc2F)c(C(F)F)n1 [No. I.2, N-(2′,5′-difluorobiphenyl-2-yl)-1-methyl-3-difluoromethyl-1H-pyrazole-4-carboxamide]
- Observed effect (% infection) (Puccinia recondita; 1 mg/l): 52%
- Observed effect (% infection) [1]: 0%

- melting point: 130 to 132 °C
Structure (SMILES): Cn1cc(C(=O)Nc2ccccc2-c2cc(Cl)ccc2Cl)c(C(F)F)n1 [No. I.4, N-(2′,5′-dichlorobiphenyl-2-yl)-1-methyl-3-difluoromethyl-1H-pyrazole-4-carboxamide]

- melting point: 131 to 135 °C
Structure (SMILES): Cn1cc(C(=O)Nc2ccccc2-c2cc(Cl)ccc2Cl)c(C(F)(F)F)n1 [No. I.5, N-(2′,5′-dichlorobiphenyl-2-yl)-1-methyl-3-trifluoromethyl-1H-pyrazole-4-carboxamide]

Structure (SMILES): COc1ccc(C(=CC(=O)N2CCOCC2)c2ccc(Cl)cc2)cc1OC [dimethomorph, 3-(4-chlorophenyl)-3-(3,4-dimethoxyphenyl)-1-morpholin-4-yl-propenone, reference compound]
- Observed effect (% infection) (Septoria tritici; 4 mg/l): 20%

Structure (SMILES): COc1cc(C)c(C(=O)c2c(OC)ccc(Br)c2C)c(OC)c1OC [metrafenone, 3′-bromo-2,3,4,6′-tetramethoxy-2′,6-dimethylbenzophenone, reference compound]
- Observed effect (% infection) (Puccinia recondita; 4 mg/l): 0%

Structure (SMILES): COC(=O)N(OC)c1ccccc1COc1ccn(-c2ccc(Cl)cc2)n1 [pyraclostrobin, methyl N-{2-[1-(4-chlorophenyl)-1H-pyrazol-3-yloxymethyl]phenyl}(N-methoxy)carbamate, reference compound]
- Observed effect (% infection) [1]: 33%
- Observed effect (% infection) (Phakopsora pachyrhizi): 29%
